Series [1] deals with NO generated by LPS-induced macrophages. Briefly: Nitric oxide assay (Griess) in LPS-induced macrophages. As to conditions: Mus musculus, Macrophage, 18 h, LPS 1 µg/mL, read-out: % NO Production (Mean ± SEM). It is filed as cell-based, murine. The procedure, abridged: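 Murine macrophages (1 × 10^6/well) pre-treated 2 h with compound at 100, 50, 10 or 1 µM, then LPS 1 µg/mL for 18 h. Nitrite in medium measured with Griess reagent at 540 nm against a NaNO2 standard curve; piroxicam as positive control, t-test for significance.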

Series [2] deals with carrageenan-induced paw edema. Briefly: Carrageenan-induced paw edema (in vivo anti-inflammatory activity). Set-up: species or system BALB/C albino mice; unit not given beside the values. The note with it: 10 mg/kg, mice, n = 5. On the procedure: At 7–8 weeks old, male BALB/C albino mice (29–35 g), were purchased from The National Institute of Health (NIH), Islamabad, Pakistan. Five animals were housed per group and placed in a controlled temperature and humidity-controlled room (22 °C and 66 ± 5%, respectively) in a 12 h light–dark cycle and provided with water and food ad libitum. Ethical approval was taken from the bio-ethical committee of Quaid-I-Azam University (Approval No. BEC-FBS-QAU2018-119) and all protocols were conducted following the Ethical Guide to the Code of Practice for the Housing and Care of Animals Act 1986 (ARRIVE (Animal Research: Reporting In Vivo Experiments) guidelines). The anti-inflammatory activity of the synthesized compounds was evaluated by using the carrageenan-induced rat paw edema assay. To determine the dose response of tetrahydroquinoline derivatives, animals were first given a dose of 0.1, 1 and 10 mg/kg against 100 µL carrageenan (1% solution in normal saline)/paw. Treatment was given 60 min before carrageenan injection. Readings were taken at 4 h post carrageenan injection. The in vivo anti-inflammatory activity was performed following the procedure described by Koksal, et al. in 2017. Paw edema was induced by injecting 100 µL of 1% sterile carrageenan solution into the right hind paw of mice. Synthesized compounds (10 mg/kg), vehicle (saline with 2% DMSO) and drug (acetylsalicylic acid, ASA 10 mg/kg) were administered to the mice orally by gastric intubation 60 min before injecting carrageenan into the right hind paw. The decrease in edema was measured by vernier calipers every 2 h.
For orientation: In the carrageenan paw model, swelling and tenderness develop within hours.

Series [3] concerns raw macrophages. The experiment in a line: MTT cytotoxicity against raw macrophages. In kind it is cell-based, albino rats. The note with it: mean ± SEM, n = 3. The procedure, abridged: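 Peritoneal macrophages from albino rats were treated for 24 h at 37 °C, 5% CO2 with test compounds at 100, 50, 10 and 1 µM or vehicle, from DMSO stocks. MTT was then added for 2 h, formazan dissolved in DMSO and absorbance read at 570 nm. % viability = blank-corrected sample over blank-corrected control ×100.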

Series [4] is described as follows: Phosphomolybdenum-based total antioxidant capacity (TAC). The protocol:
In the presence of an antioxidant, the phosphomolybdate ion gets reduced and a green phosphate–molybdate complex is formed, which is analyzed spectrophotometrically.
The total antioxidant capacity was determined by using the phosphomolybdenum-based method. The method is based on the reduction of Mo (VI) to Mo (V), leading to the formation of a green-colored phosphate–molybdenum complex that gives absorption at 630 nm. In 96-well plates, 20 µL of the sample was added with 180 µL TAC reagents in it and incubated at 95 °C for 90 min in a water bath and cooled at room temperature. The results were calculated as µg AAE/mg.

The subject of series [5] is α-amylase enzyme. Briefly: α-Amylase enzyme inhibitory assay. In kind it is biochemical. As to conditions: 200 µg/mL. The protocol: An in vitro α-amylase enzyme inhibitory assay was performed by the standard protocol. Four milligrams per 1 mL of sample was prepared in DMSO. In each well of a 96-well plate, synthetic compounds were added to a final concentration of 200 µg/mL. To this, 15 μL phosphate buffer, […] α-amylase enzyme and 40 μL starch solution were added stepwise. The microplate was incubated at 50 °C for 30 min. […] The formula used to calculate the percent enzyme inhibition is:% Enzyme inhibition = [(As − An) ÷ (Ab − An] × 100
As = sample’s absorbance; An = negative’s absorbance; Ab = blank’s absorbance

The record followed here is publication PMC7321408, “One-Pot Multicomponent Synthesis and Bioevaluation of Tetrahydroquinoline Derivatives as Potential Antioxidants, α-Amylase Enzyme Inhibitors, Anti-Cancerous and Anti-Inflammatory Agents” (Molecules, 2020).

As usually defined, the IC50 is the midpoint of a concentration-inhibition curve.

Turning to `c1ccc2c(c1)CCCN2CN1CCCCC1` [SF1, 1-(Piperidine-1-ylmethyl) 1,2,3,4-tetrahahydroquinoline], in series [1], the activity at 1 µM stood at 27.8 ± 0.45%, the activity at 10 µM turned out to be 26 ± 0.43%, the activity at 50 µM was 23.7 ± 0.41% and the activity at 100 µM was determined as 17.3 ± 0.35%. This compound also yielded a Paw thickness in series [2] (0 h after carrageenan injection) of 2.06 ± 0.07. In series [2] (2 h after carrageenan injection), this compound displayed a Paw thickness of 2.13 ± 0.03. Also, in series [2] (4 h after carrageenan injection), the Paw thickness is reported as 2.18 ± 0.06. In series [2] (6 h after carrageenan injection), this compound showed a Paw thickness of 2.25 ± 0.05. In series [3], the IC50 was 6.23 ± 0.01 µM.

Take `CN1CCN(CN2CCCc3ccccc32)CC1` [SF5]: in series [1], the activity at 1 µM was 51.43 ± 0.48%, the activity at 10 µM was 43 ± 0.45%, the activity at 50 µM was found to be 28.6 ± 0.44% and the activity at 100 µM was found to be 21.9 ± 0.38%. In series [4], the “Total antioxidant capacity (TAC)” value is on record as 285.46 ± 2.1 µg/AAE. Also, in series [5], the “% inhibition of α-amylase enzyme” value amounted to 97.37%.

As to `c1ccc(N(CN2CCCc3ccccc32)c2ccccc2)cc1` [SF7, N-((3,4-dihydroquinolin-1(2H)-yl)methyl)-N-phenylaniline], in series [1], the activity at 1 µM turned out to be 69.71 ± 0.65%, the activity at 10 µM was 63.12 ± 0.61%, the activity at 50 µM amounted to 21.4 ± 0.48% and the activity at 100 µM worked out at 17.5 ± 0.45%. Besides, in series [4], the “Total antioxidant capacity (TAC)” value is reported as 242.77 ± 2.31 µg/AAE. Also, in series [5], the “% inhibition of α-amylase enzyme” value was 88.67%.
